Measurements published in patent US20110306597A1, “Nicotinamide Derivatives” (priority 2008, published 2011).

Target: human recombinant H-PGDS (Homo sapiens, UniProt O60760)
Test: Fluorescence Intensity h-PGDS TBA Enzyme Assay
Format: biochemical
Details: 1:175,000 human recombinant H-PGDS, highest inhibitor concentration typically 1 μM
Method in brief: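 Recombinant human H-PGDS preincubated 10 min at room temperature with inhibitor in 100 mM Tris pH 8.0, 100 μM MgCl2, 2.5 mM glutathione, 0.5% DMSO; 5.0 μM PGH2 added, stopped after 42 s with FeCl2/citric acid. Remaining PGH2 measured as MDA–TBA fluorescence (ex 530/em 565 nm); IC50 by 4-parameter fit, 11 concentrations.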

human recombinant H-PGDS, sequence (O60760 whole entry): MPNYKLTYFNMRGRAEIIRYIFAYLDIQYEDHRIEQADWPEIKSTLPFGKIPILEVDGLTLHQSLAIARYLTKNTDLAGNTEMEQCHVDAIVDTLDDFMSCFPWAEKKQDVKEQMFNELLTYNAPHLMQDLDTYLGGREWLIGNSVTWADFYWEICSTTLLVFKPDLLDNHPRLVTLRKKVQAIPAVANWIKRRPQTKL

O=C(NCCNc1ccccc1)c1ccc(-c2cccc(F)c2)nc1 [Example 429, N-(2-Anilinoethyl)-6-(3-fluorophenyl)nicotinamide]
IC50: 0.0218 µM

COc1ccc(CNC(=O)c2ccc(-c3ccccc3)nc2)cc1 [Example 519, N-(4-Methoxybenzyl)-6-phenylnicotinamide]
IC50: 0.0083 µM

O=C(NCc1ccc(Cl)cc1)c1ccc(-c2cccc(F)c2)nc1 [Example 410, N-(4-Chlorobenzyl)-6-(3-fluorophenyl)nicotinamide]
IC50: 0.0398 µM

CCCOCCCNC(=O)c1ccc(-c2cc(F)cc(OC)c2)nc1 [Example 557, 6-(3-Fluoro-5-methoxypheny)-N-(3-propoxypropyl)nicotinamide]
IC50: 0.0896 µM

CS(=O)(=O)c1ccc(CNC(=O)c2ccc(-c3cccc(F)c3)nc2)cc1 [Example 420, 6-(3-Fluorophenyl)-N-[4-(methylsulfonyl)benzyl] nicotinamide]
IC50: 0.0341 µM

COC(=O)c1ccc(CNC(=O)c2ccc(-c3ccccc3)nc2)cc1 [Example 523, Methyl 4-({[(6-phenylpyridin-3-yl)carbonyl]amino}methyl) benzoate]
IC50: 0.0141 µM

CCOC(=O)CCNC(=O)c1ccc(-c2cccc(F)c2)nc1 [Example 209, Ethyl N-{[6-(3-fluorophenyl)pyridin-3-yl]carbonyl}-beta-alaninate]
IC50: 0.0131 µM

COc1cccc(-c2ccc(C(=O)NCc3cccc(F)c3)cn2)c1 [Example 311, N-(3-Fluorobenzyl)-6-(3-methoxyphenyl)nicotinamide]
IC50: 0.368 µM

Cc1cccc(-c2ccc(C(=O)NCc3ccc(S(N)(=O)=O)cc3)cn2)c1 [Example 449, N-[4-(Aminosulfonyl)benzyl]-6-(3-methylphenyl)nicotinamide]
IC50: 0.0259 µM

O=C(NCC1CN(CCc2ccccn2)C(=O)CO1)c1ccc(-c2cccc(F)c2)nc1 (stereo not shown) [Example 105, 6-(3-Fluorophenyl)-N-{[5-oxo-4-(2-pyridin-2-ylethyl)morpholin-2-yl]methyl}nicotinamide]
IC50: 0.0586 µM

CN1CCN(CC(CNC(=O)c2ccc(-c3cccc(F)c3)nc2)c2ccccc2)CC1 (stereo not shown) [Example 103, 6-(3-Fluorophenyl)-N-[3-(4-methylpiperazin-1-yl)-2-phenylpropyl]nicotinamide]
IC50: 0.316 µM

CN1CCCCC1CNC(=O)c1ccc(-c2cccc(F)c2)nc1 (stereo not shown) [Example 97, 6-(3-Fluorophenyl)-N-[(1-methylpiperidin-2-yl)methyl]nicotinamide]
IC50: 0.153 µM

O=C(NCCN1CCCOC1=O)c1ccc(-c2cccc(F)c2)nc1 [Example 41, 6-(3-Fluorophenyl)-N-[2-(2-oxo-1,3-oxazinan-3-yl)ethyl]nicotinamide]
IC50: 0.0182 µM

COc1cccc(-c2ccc(C(=O)NCCc3nc(C)no3)cn2)c1 [Example 278, 6-(3-Methoxyphenyl)-N-[2-(3-methyl-1,2,4-oxadiazol-5-yl)ethyl]nicotinamide]
IC50: 0.324 µM

CCc1cn2nc(N3C[C@H](NC(=O)c4ccc(-c5cccc(F)c5)nc4)[C@@H](O)C3)ccc2n1 [Example 564, N-[(3S,4S)-1-(2-ethylimidazo[1,2-b]pyridazin-6-yl)-4-hydroxypyrrolidin-3-yl]-6-(3-fluorophenyl)nicotinamide]
IC50: 0.0616 µM

O=C(NCc1nc(-c2ccccc2)no1)c1ccc(-c2cccc(F)c2)nc1 [Example 133, 6-(3-Fluorophenyl)-N-[(3-phenyl-1,2,4-oxadiazol-5-yl)methyl]nicotinamide]
IC50: 0.0592 µM

COC(=O)CNC(=O)[C@H](C)NC(=O)c1ccc(-c2cccc(OC)c2)nc1 [Example 309, Methyl N-{[6-(3-methoxyphenyl)pyridin-3-yl]carbonyl}-L-alanylglycinate]
IC50: 0.557 µM

O=C(NCCC1CCC(=O)N1CCN1CCNC1=O)c1ccc(-c2ccccc2)nc1 (stereo not shown) [Example 360, N-(2-{5-Oxo-1-[2-(2-oxoimidazolidin-1-yl)ethyl]pyrrolidin-2-yl}ethyl)-6-phenylnicotinamide]
IC50: 0.0103 µM

COc1cccc(-c2ccc(C(=O)NCCc3cccs3)cn2)c1 [Example 302, 6-(3-Methoxyphenyl)-N-[2-(2-thienyl)ethyl]nicotinamide]
IC50: 0.177 µM

Cc1noc(CCNC(=O)c2ccc(-c3ccc(F)cc3)nc2)n1 [Example 496, 6-(4-Fluorophenyl)-N-[2-(3-methyl-1,2,4-oxadiazol-5-yl)ethyl]nicotinamide]
IC50: 0.429 µM

O=C(NCCOCc1nc2ccccc2[nH]1)c1ccc(-c2cccc(F)c2)nc1 [Example 76, N-[2-(1H-Benzimidazol-2-ylmethoxy)ethyl]-6-(3-fluorophenyl)nicotinamide]
IC50: 0.0347 µM

CCC(C)NC(=O)c1ccc(-c2ccc(F)cc2)nc1 (stereo not shown) [Example 492, N-sec-Butyl-6-(4-fluorophenyl)nicotinamide]
IC50: ≥ 1 µM

O=C(NCCCn1nnc2ccccc21)c1ccc(-c2cccc(F)c2)nc1 [Example 5, N-[3-(1H-Benzotriazol-1-yl)propyl]-6-(3-fluorophenyl)nicotinamide]
IC50: 0.00486 µM

CN(C)CC(C)(C)CNC(=O)c1ccc(-c2ccc(F)cc2)nc1 [Example 266, N-[3-(Dimethylamino)-2,2-dimethylpropyl]-6-(4-fluorophenyl)nicotinamide]
IC50: ≥ 1 µM

Cc1cccc(-c2ccc(C(=O)Nc3cccnc3)cn2)c1 [Example 488, 6-(3-Methylphenyl)-N-pyridin-3-ylnicotinamide]
IC50: 0.0114 µM

Cc1cccc2c1OCCC2NC(=O)c1ccc(-c2cc(F)cc(F)c2)nc1 (stereo not shown) [Example 533, 6-(3,5-Difluorophenyl)-N-(8-methyl-3,4-dihydro-2H-chromen-4-yl)nicotinamide]
IC50: 0.00879 µM

O=C(NCCN1CCCC1=O)c1ccc(-c2ccc(F)cc2)nc1 [Example 477, 6-(4-Fluorophenyl)-N-[2-(2-oxopyrrolidin-1-yl)ethyl]nicotinamide]
IC50: 0.895 µM

CCOC(=O)CCCNC(=O)c1ccc(-c2cccc(OC)c2)nc1 [Example 301, Ethyl 4-({[6-(3-methoxyphenyl)pyridin-3-yl]carbonyl}amino)butanoate]
IC50: 0.0499 µM

COc1cc(F)cc(-c2ccc(C(=O)NCc3ccc(OC)c(OC)c3)cn2)c1 [Example 556, N-(3,4-Dimethoxybenzyl)-6-(3-fluoro-5-methoxyphenyl)nicotinamide]
IC50: 0.09 µM

CCN1CCCC(CNC(=O)c2ccc(-c3cccc(F)c3)nc2)C1 (stereo not shown) [Example 114, N-[(1-Ethylpiperidin-3-yl)methyl]-6-(3-fluorophenyl)nicotinamide]
IC50: 0.236 µM

NS(=O)(=O)c1ccc(CNC(=O)c2ccc(-c3cccc(F)c3)nc2)cc1 [Example 413, N-[4-(Aminosulfonyl)benzyl]-6-(3-fluorophenyl)nicotinamide]
IC50: 0.0929 µM

O=C(NCc1noc(C(=O)N2CC[C@H](O)C2)n1)c1ccc(-c2cccc(F)c2)nc1 [Example 199, 6-(3-Fluorophenyl)-N-[(5-{[(3S)-3-hydroxypyrrolidin-1-yl]carbonyl}-1,2,4-oxadiazol-3-yl)methyl]nicotinamide]
IC50: 0.622 µM

CCOC(=O)C(CNC(=O)c1ccc(-c2cccc(F)c2)nc1)C1CCCC1 (stereo not shown) [Example 155, Ethyl 2-cyclopentyl-3-({[6-(3-fluorophenyl)pyridin-3-yl]carbonyl}amino)propanoate]
IC50: 0.0059 µM

Cc1cccc(-c2ccc(C(=O)NCc3ccco3)cn2)c1 [Example 246, N-(2-Furylmethyl)-6-(3-methylphenyl)nicotinamide]
IC50: 0.0292 µM

O=C(NCc1coc(-c2ccc(F)cc2)n1)c1ccc(-c2cccc(F)c2)nc1 [Example 535, 6-(3-Fluorophenyl)-N-{[2-(4-fluorophenyl)-1,3-oxazol-4-yl]methyl}nicotinamide]
IC50: 0.00556 µM

Cc1cccc(-c2ccc(C(=O)NCc3nnc(-c4cccnc4)[nH]3)cn2)c1 [Example 448, 6-(3-Methylphenyl)-N-[(5-pyridin-3-yl-4H-1,2,4-triazol-3-yl)methyl]nicotinamide]
IC50: 0.00913 µM

COc1cccc(-c2ccc(C(=O)Nc3ccncc3)cn2)c1 [Example 336, 6-(3-Methoxyphenyl)-N-pyridin-4-ylnicotinamide]
IC50: 0.0873 µM

O=C(NCCN1CCCC1=O)c1ccc(-c2cccc(F)c2)nc1 [Example 183, 6-(3-Fluorophenyl)-N-[2-(2-oxopyrrolidin-1-yl)ethyl]nicotinamide]
IC50: 0.0174 µM

CN1CCN(CCCNC(=O)c2ccc(-c3cccc(F)c3)nc2)CC1 [Example 111, 6-(3-Fluorophenyl)-N-[3-(4-methylpiperazin-1-yl)propyl]nicotinamide]
IC50: 0.108 µM

COc1ccc2nc(CCNC(=O)c3ccc(-c4cccc(F)c4)nc3)[nH]c2c1 [Example 208, 6-(3-Fluorophenyl)-N-[2-(6-methoxy-1H-benzimidazol-2-yl)ethyl]nicotinamide]
IC50: 0.0183 µM

CN(C)C(=O)CNC(=O)c1ccc(-c2ccccc2)nc1 [Example 374, N-[2-(Dimethylamino)-2-oxoethyl]-6-phenylnicotinamide]
IC50: 0.0921 µM

O=C(NCC1CCCOC1)c1ccc(-c2cccc(F)c2)nc1 (stereo not shown) [Example 40, 6-(3-Fluorophenyl)-N-(tetrahydro-2H-pyran-3-ylmethyl)nicotinamide]
IC50: 0.00714 µM

COc1cccc(-c2ccc(C(=O)NCCC3CCN(C)CC3)cn2)c1 [Example 487, 6-(3-Methoxyphenyl)-N-[2-(1-methylpiperidin-4-yl)ethyl]nicotinamide]
IC50: ≥ 1 µM

O=C(NCCc1nnc(C2CC2)o1)c1ccc(-c2cccc(F)c2)nc1 [Example 207, N-[2-(5-Cyclopropyl-1,3,4-oxadiazol-2-yl)ethyl]-6-(3-fluorophenyl)nicotinamide]
IC50: 0.0271 µM

Cc1cccc(-c2ccc(C(=O)NCCN3CCCC3)cn2)c1 [Example 237, 6-(3-Methylphenyl)-N-(2-pyrrolidin-1-ylethyl)nicotinamide]
IC50: 0.504 µM

Cc1cccc(-c2ccc(C(=O)NCCC3CCCCO3)cn2)c1 (stereo not shown) [Example 320, 6-(3-Methylphenyl)-N-[2-(tetrahydro-2H-pyran-2-yl)ethyl]nicotinamide]
IC50: 0.0174 µM
